Reference: patent EP2650284A1, “Heterocyclic derivatives as metabotropic glutamate receptor modulators” (Merz Pharma GmbH & Co. KGaA, priority 2012, dated 2013)
pEC50, pIC50, pKi: −log10 of the molar value.

Experiments:
[1] = biological target: T1, human metabotropic glutamate receptor mGluR5 (Homo sapiens, UniProt P41594); assay: Cytosolic calcium studies with stably transfected cells (h5CHO), functional assay of mGluR5 receptors; assay type: cell-based; conditions: for pEC50: positive modulators, h5CHO cells preincubated with modulator, stimulated by an EC20 concentration of L-glutamate, read-out: hEC50
T1 construct: expressed in transfected cells; host or cells: CHO-K1 (h5CHO), IPTG-inducible
T1 sequence (P41594 21-1212): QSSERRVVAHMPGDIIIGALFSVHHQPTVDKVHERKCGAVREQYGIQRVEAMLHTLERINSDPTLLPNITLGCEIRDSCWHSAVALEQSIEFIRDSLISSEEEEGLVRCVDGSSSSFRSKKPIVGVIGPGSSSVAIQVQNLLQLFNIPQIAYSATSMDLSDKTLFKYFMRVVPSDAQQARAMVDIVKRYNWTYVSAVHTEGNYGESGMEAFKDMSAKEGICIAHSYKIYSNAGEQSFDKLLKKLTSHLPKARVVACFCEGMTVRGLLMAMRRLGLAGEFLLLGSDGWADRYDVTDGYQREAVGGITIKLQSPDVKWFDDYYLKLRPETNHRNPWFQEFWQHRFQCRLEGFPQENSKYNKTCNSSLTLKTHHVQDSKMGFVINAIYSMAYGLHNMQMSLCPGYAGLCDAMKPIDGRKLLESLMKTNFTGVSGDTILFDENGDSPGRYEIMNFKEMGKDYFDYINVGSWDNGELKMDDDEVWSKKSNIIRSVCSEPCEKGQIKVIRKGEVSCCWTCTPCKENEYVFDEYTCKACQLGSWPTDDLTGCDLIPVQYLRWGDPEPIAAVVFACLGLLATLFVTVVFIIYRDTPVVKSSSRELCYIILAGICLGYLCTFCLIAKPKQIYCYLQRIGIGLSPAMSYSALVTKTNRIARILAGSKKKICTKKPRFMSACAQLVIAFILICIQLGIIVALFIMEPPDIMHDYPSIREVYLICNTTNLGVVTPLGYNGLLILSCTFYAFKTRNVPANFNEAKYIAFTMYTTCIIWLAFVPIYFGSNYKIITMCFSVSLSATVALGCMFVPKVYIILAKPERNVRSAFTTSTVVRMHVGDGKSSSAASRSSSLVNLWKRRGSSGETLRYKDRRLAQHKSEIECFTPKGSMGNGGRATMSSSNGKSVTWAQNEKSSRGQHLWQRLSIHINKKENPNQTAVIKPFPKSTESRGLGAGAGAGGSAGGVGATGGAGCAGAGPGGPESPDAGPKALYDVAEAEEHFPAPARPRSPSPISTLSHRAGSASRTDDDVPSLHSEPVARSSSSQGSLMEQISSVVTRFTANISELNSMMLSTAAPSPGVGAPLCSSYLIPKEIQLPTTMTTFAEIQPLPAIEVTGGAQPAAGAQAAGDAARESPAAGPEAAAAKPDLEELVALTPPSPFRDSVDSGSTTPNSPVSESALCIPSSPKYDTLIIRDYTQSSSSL
Method in brief: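 IPTG-induced h5CHO (CHO-K1 expressing human mGluR5) loaded with calcium dye; compounds (0.5% DMSO) added 5 min before agonist. NAM IC50 against L-quisqualate at ~EC80; PAM EC50 with EC20 L-glutamate. FLIPR fluorescence, max-minus-min, % of maximal response, logistic fit.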

mGluR5 binding site = biological target: T2, mGluR5 binding site (Rattus norvegicus, UniProt P31424); assay: [3H]-M-MPEP displacement studies on rat cortical membranes; conditions: Table A3, [3H]-M-MPEP 2 nM, 4°C for 1 h, median, read-out: Ki (MMPEP)
T2 construct: from tissue; host or cells: cortex of adult male Sprague-Dawley rats, membrane preparation
T2 sequence (P31424 21-1203): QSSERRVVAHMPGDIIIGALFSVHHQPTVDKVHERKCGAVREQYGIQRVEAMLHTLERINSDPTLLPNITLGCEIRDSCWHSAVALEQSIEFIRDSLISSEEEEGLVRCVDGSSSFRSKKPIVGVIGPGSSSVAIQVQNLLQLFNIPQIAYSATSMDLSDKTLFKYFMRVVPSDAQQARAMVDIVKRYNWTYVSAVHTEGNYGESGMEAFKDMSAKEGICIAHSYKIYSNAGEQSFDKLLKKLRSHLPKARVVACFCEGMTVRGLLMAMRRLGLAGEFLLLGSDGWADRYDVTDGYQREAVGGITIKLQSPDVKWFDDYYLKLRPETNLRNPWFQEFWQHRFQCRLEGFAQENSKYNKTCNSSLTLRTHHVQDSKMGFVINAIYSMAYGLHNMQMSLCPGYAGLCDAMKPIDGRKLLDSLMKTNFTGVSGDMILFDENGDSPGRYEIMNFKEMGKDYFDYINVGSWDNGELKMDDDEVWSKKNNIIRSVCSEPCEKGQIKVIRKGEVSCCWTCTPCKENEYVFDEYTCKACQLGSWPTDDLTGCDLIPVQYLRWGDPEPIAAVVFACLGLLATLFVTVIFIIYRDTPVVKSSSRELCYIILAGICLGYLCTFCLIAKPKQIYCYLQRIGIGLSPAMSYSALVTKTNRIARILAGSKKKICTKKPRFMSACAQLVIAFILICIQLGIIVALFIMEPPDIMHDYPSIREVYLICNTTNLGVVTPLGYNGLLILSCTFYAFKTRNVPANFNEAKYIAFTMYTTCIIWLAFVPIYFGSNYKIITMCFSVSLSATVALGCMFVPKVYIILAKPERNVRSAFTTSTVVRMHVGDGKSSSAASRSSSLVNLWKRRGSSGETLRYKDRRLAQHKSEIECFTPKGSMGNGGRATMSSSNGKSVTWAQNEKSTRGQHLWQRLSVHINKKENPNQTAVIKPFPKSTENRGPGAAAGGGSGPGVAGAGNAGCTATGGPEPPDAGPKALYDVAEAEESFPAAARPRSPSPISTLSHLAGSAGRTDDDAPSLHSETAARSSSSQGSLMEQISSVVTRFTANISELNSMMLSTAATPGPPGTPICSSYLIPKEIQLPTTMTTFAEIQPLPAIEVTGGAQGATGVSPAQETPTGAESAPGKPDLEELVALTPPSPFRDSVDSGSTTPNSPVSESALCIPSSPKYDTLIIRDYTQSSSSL
Description: Tissue preparation is performed according to Foster & Wong (Br. J. Pharmacol., 1987, 91, 403-409) with some modifications. Anaesthetised male Sprague-Dawley rats (200-250 g, Janvier, Le Genest-Isle, France) are decapitated and their brains are removed rapidly. The cortex is dissected out and processed as described by Parsons, et al. (J. Pharmacol. Exp. Ther., 1997, 283(3): 1264-1275). For isolation of the cell membranes, the cortices are homogenized in 20 volumes of ice-cold 0.32 M sucrose (Sigma-Aldrich, Taufkirchen, Germany) using a glass-Teflon homogenizer. The homogenate is centrifuged at 1000 x g for 10 minutes, the pellet is discarded and the supernatant centrifuged at 20,000 x g for 20 minutes. The resulting pellet is resuspended in 20 volumes of distilled water and centrifuged for 20 minutes at 8000 x g. The supernatant and the buffy coat are then centrifuged six times (48,000 x g for 20 minutes) in the presence of 5 mM Tris-HCl, pH 7.5. All centrifugation steps are carried out at 4°C. After resuspension in 5 volumes of 5 mM Tris-HCl, pH 7.5, the membrane suspension is frozen rapidly at -80°C.
On the day of assay, the membrane suspensions are thawed, centrifuged (48,000 x g for 20 minutes) and then resuspended in 50 mM Tris-HCl, pH 7.5 (assay buffer). The amount of protein in the final membrane preparation is determined according to the method of Lowry, et al. (J. Biol. Chem., 1951, 193, 256-275). The final concentration used for our studies is 400 µg / ml.
The Tecan robotic system designed for binding assays is loaded with the membrane solution, a 96 well stock plate containing the solutions for bound control (buffer/DMSO 10%), unlabeled MPEP (10 µM) for evaluation of non-specific binding, all compounds to be tested (at 20-fold concentrations), various empty 96-well plates for dilutions and the final assay plates, as well as a 96-well plate filled with the radioligand.
Before performing displacement studies, saturation experiments are performed to determine the equilibrium dissociation constant (Kd, Cheng and Prussoff, Biochem. Pharmacol., 1973, 22: 3099-3108) of [^3H]-M-MPEP, which is a parameter for the affinity of the radioligand to the binding site. On the basis of the saturation experiments, a final [^3H]-M-MPEP concentration of 2 nM was selected.
Firstly, the assay plates are loaded with membrane solution and are shaken at 4°C. The mother plates were then prepared by pipetting the compounds (n = 5) into assay buffer/10% DMSO to obtain the desired final concentrations. After transferring radioligand into the assay plates, the compounds are added (including the non-specific binding control containing MPEP). The final DMSO concentration is always 1 %. The assay plates are incubated and shaken at 4°C for 1 h, before the mixture is exhausted as rapidly as possible via a vacuum manifold using the Multiscreen HTS glass fibre (type B) high flow filter plates (Millipore, Schwalbach, Germany) under a constant vacuum of 450 mbar. The membranes are washed four times with cold assay buffer (100 µL). 50 µL of Ultima Gold scintillation cocktail (PerkinElmer) is added to the wet filter plates and incubated at rt overnight before counting the disintegration per minutes using a liquid scintillation counter (MicroBeta, PerkinElmer).
For the evaluation of the test compound binding affinity to the mGluR5 binding site and its potency to displace [^3H]-M-MPEP, the measured radioactivity of the radioligand alone was set as 100% bound control and the non-specific binding of the radioligand represented the 0% control. The residual radioactivity after displacement of the test compound was then corrected with respect to the set controls. Data are given as median IC50 and Ki, respectively.

mGluR5 receptors = biological target: T3, mGluR5 receptors (Rattus norvegicus, UniProt P31424); assay: Cytosolic calcium studies with astrocytes (FLIPR), functional assay of mGluR5 receptors; assay type: cell-based; conditions: for r left shift: Table A1, left shift of quisqualate EC50 in the presence and absence of 10 µM modulator; for pEC50: Table A1, positive modulators, fixed concentration of quisqualate (normally 10-30 nM), read-out: rEC50
T3 construct: Primary astrocyte cultures are prepared from cortices of newborn rats; endogenous in cells; host or cells: primary cortical astrocytes from Sprague-Dawley rat pups (2-4 d old)
T3 sequence (P31424 21-1203): as above
Method in brief: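 Rat cortical primary astrocytes at 14-15 DIV, loaded with Ca-sensitive dye for 2 h at RT, pH 7.3 buffer; FLIPR fluorescence after L-quisqualate (100 nM), antagonists pre-incubated 10 min. PAMs: quisqualate curves ± 10 µM modulator, or modulator curves at fixed 10-30 nM quisqualate. Max-min responses as % control, logistic fit.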

[2] = Table A1, left shift of agonist EC50, dose response curves in the presence of 10 µM modulator or vehicle, h5CHO cells

| Compound | h left shift ([1]; Table A3 (SAMs / very weak PAMs), agonist EC50 shift with 10 µM modulator or vehicle, h5CHO cells) | pKi (mGluR5 binding site) | h left shift [1, 2] | pEC50 ([1]; Table A1) | r left shift (mGluR5 receptors) | pEC50 (mGluR5 receptors) | pIC50 ([1]; Table A2, negative modulation, compounds added 5 minutes before L-quisqualic acid (~80% of the maximal signal), h5CHO cells, read-out: hIC50) | pIC50 (mGluR5 receptors; Table A2, pre-incubated 10 minutes before L-quisqualate (100 nM), read-out: rIC50) |
| --- | --- | --- | --- | --- | --- | --- | --- | --- |
| (rac)-cis-Methyl 3-((3-fluorophenyl)ethynyl)-6a,7,9,9a-tetrahydro-5H-pyrrolo[3,4-h]quinoline-8(6H)-carboxylate [Example 32] | 0.9-fold | 7.31 | – | – | – | – | – | – |
| COC(=O)N1CCO[C@@H]2c3cc(C#Cc4ccccc4)cnc3CC[C@@H]21 (racemic) [Example 26, (rac)-cis-Methyl 9-(phenylethynyl)-4a,5,6,10b-tetrahydro-2H-[1,4]oxazino[2,3-f]quinoline-4(3H)-carboxylate] | – | – | 2.9-fold | 6.02 | 4.4-fold | 6.22 | – | – |
| O=C1OC2(CCCc3ncc(C#Cc4ccccc4)cc32)CN1c1ccccc1 (racemic) [Example 12, (rac)-3-Phenyl-3'-(phenylethynyl)-7',8'-dihydro-6'H-spiro[oxazolidine-5,5'-quinolin]-2-one] | – | – | 1.9-fold | 6.02 | – | 6.07 | – | – |
| COC(=O)N1C[C@H]2Cc3cc(C#Cc4cccc(F)c4)cnc3[C@H]2C1 (racemic) [Example 73, (rac)-cis-Methyl 3-((3-fluorophenyl)ethynyl)-5a,6,8,8a-tetrahydropyrrolo[3',4':4,5]cyclopenta[1,2-b]pyridine-7(5H)-carboxylate] | – | – | 2.7-fold | 6.26 | 2.7-fold | 6.66 | – | – |
| COC(=O)N1CC2CCc3ncc(C#Cc4cccc(F)c4)cc3C2C1 (stereo not drawn) [Example 31, Methyl 8-((3-fluorophenyl)ethynyl)-3,3a,4,5-tetrahydro-1H-pyrrolo[3,4-f]quinoline-2(9bH)-carboxylate] | – | – | 2.6-fold | 6.48 | 1.5-fold | 6.58 | – | – |
| CCCN1CCO[C@H]2c3cc(C#Cc4ccccc4)cnc3CC[C@@H]21 (racemic) [Example 22, (rac)-trans-9-(Phenylethynyl)-4-propyl-3,4,4a,5,6,10b-hexahydro-2H-[1,4]oxazino[2,3-f]quinoline] | – | – | 2.2-fold | 5.74 | 1.8-fold | – | – | – |
| COC1CC(C)(C)Cc2ncc(C#Cc3cccc(N)n3)cc21 (racemic) [Example 5, (rac)-6-((5-Methoxy-7,7-dimethyl-5,6,7,8-tetrahydroquinolin-3-yl)ethynyl)pyridin-2-amine] | – | – | – | – | – | – | 7.18 | 7.34 |
| COC(=O)N1CC[C@H]2c3ncc(C#Cc4ccccc4)cc3CC[C@H]21 [Example 71, (6aR,9aR)-Methyl 3-(phenylethynyl)-6,6a,9,9a-tetrahydro-5H-pyrrolo[2,3-h]quinoline-7(8H)-carboxylate] | – | – | 2.2-fold | 6.62 | 1.3-fold | 7.49 | – | – |

The remaining compounds from weak to strong by pEC50 ([1]; Table A1), led by results:

| h left shift ([1]; Table A3 (SAMs / very weak PAMs), agonist EC50 shift with 10 µM modulator or vehicle, h5CHO cells) | pKi (mGluR5 binding site) | h left shift [1, 2] | pEC50 ([1]; Table A1) | r left shift (mGluR5 receptors) | pEC50 (mGluR5 receptors) | pIC50 ([1]; Table A2, negative modulation, compounds added 5 minutes before L-quisqualic acid (~80% of the maximal signal), h5CHO cells, read-out: hIC50) | pIC50 (mGluR5 receptors; Table A2, pre-incubated 10 minutes before L-quisqualate (100 nM), read-out: rIC50) | Compound |
| --- | --- | --- | --- | --- | --- | --- | --- | --- |
| – | – | 3.2-fold | 7.05 | 5.2-fold | 6.76 | – | – | CCCN1CCO[C@@H]2c3cc(C#Cc4ccccc4)cnc3CC[C@@H]21 (racemic) [Example 15, (rac)-cis-9-(Phenylethynyl)-4-propyl-3,4,4a,5,6,10b-hexahydro-2H-[1,4]oxazino[2,3-f]quinoline] |
| – | – | 2.1-fold | 7.19 | 4.2-fold | 6.87 | – | – | FC(F)(F)CN1CCO[C@@H]2c3cc(C#Cc4ccccc4)cnc3CC[C@@H]21 (racemic) [Example 24, (rac)-cis-9-(Phenylethynyl)-4-(2,2,2-trifluoroethyl)-3,4,4a,5,6,10b-hexahydro-2H-[1,4]oxazino[2,3-f]quinoline] |
| – | – | 3.8-fold | 7.33 | 6.0-fold | 6.34 | – | – | CCCN1CCO[C@@H]2c3cc(C#Cc4ccccc4)cnc3CC[C@@H]21 (single isomer, unassigned) [Example 16, cis-9-(Phenylethynyl)-4-propyl-3,4,4a,5,6,10b-hexahydro-2H-[1,4]oxazino[2,3-f]quinoline] |
| – | – | 2.8-fold | 7.60 | 2.8-fold | 7.66 | – | – | CCOC(=O)C(=O)N1CCc2ncc(C#Cc3ccccc3)cc2C1 [Example 77, Ethyl 2-oxo-2-(3-(phenylethynyl)-7,8-dihydro-1,6-naphthyridin-6(5H)-yl)acetate] |
| – | – | 2.4-fold | 7.72 | 2.2-fold | – | – | – | Cn1ncc2c1-c1cc(C#Cc3ccccc3)cnc1CC2 [Example 28, 1-Methyl-8-(phenylethynyl)-4,5-dihydro-1H-pyrazolo[3,4-f]quinoline] |
